Assay results from PubChem BioAssay (NCI).
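Method: 48-hour compound exposure of cells in 96-well plates, five concentrations, linear interpolation of endpoints. Here, GI50 denotes the concentration required for 50% inhibition of growth. At the TGI there is no net growth.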

Assays:
Assay in all cases: DTP human tumour cell line panel, 48 h
MOLT-4 leukemia = system: MOLT-4 leukemia
T-47D breast = system: T-47D breast
NCI-H226 lung = system: NCI-H226 lung
OVCAR-5 ovarian = system: OVCAR-5 ovarian
UO-31 renal = system: UO-31 renal
COLO 205 colon = system: COLO 205 colon
UACC-257 melanoma = system: UACC-257 melanoma
SK-MEL-2 melanoma = system: SK-MEL-2 melanoma
786-0 renal = system: 786-0 renal
HL-60(TB) leukemia = system: HL-60(TB) leukemia
SF-539 CNS = system: SF-539 CNS
UACC-62 melanoma = system: UACC-62 melanoma
SNB-75 CNS = system: SNB-75 CNS
MDA-MB-435 = system: MDA-MB-435
A549 NSCLC = system: A549 NSCLC
HOP-62 NSCLC = system: HOP-62 NSCLC
NCI-H522 lung = system: NCI-H522 lung
OVCAR-3 ovarian = system: OVCAR-3 ovarian
NCI-H23 lung = system: NCI-H23 lung
HCT-15 colon = system: HCT-15 colon
HS 578T breast = system: HS 578T breast
NCI-H460 lung = system: NCI-H460 lung
MCF7 breast = system: MCF7 breast
M14 melanoma = system: M14 melanoma
SW-620 colon = system: SW-620 colon
PC-3 prostate = system: PC-3 prostate
HT29 colon = system: HT29 colon
KM12 colon = system: KM12 colon
EKVX NSCLC = system: EKVX NSCLC
DU-145 prostate = system: DU-145 prostate
LOX IMVI melanoma = system: LOX IMVI melanoma
K-562 leukemia = system: K-562 leukemia
MALME-3M melanoma = system: MALME-3M melanoma
A498 renal = system: A498 renal
U251 CNS = system: U251 CNS
SF-295 CNS = system: SF-295 CNS
CAKI-1 renal = system: CAKI-1 renal
CCRF-CEM leukemia = system: CCRF-CEM leukemia
TK-10 renal = system: TK-10 renal
IGROV1 ovarian = system: IGROV1 ovarian
SK-MEL-5 melanoma = system: SK-MEL-5 melanoma
RXF 393 renal = system: RXF 393 renal
SR leukemia = system: SR leukemia
SN12C renal = system: SN12C renal
OVCAR-4 ovarian = system: OVCAR-4 ovarian
MDA-MB-231 breast = system: MDA-MB-231 breast
NCI/ADR-RES ovarian = system: NCI/ADR-RES ovarian
HOP-92 NSCLC = system: HOP-92 NSCLC
BT-549 breast = system: BT-549 breast
ACHN renal = system: ACHN renal
HCT-116 colon = system: HCT-116 colon
RPMI-8226 leukemia = system: RPMI-8226 leukemia
HCC-2998 colon = system: HCC-2998 colon
SNB-19 CNS = system: SNB-19 CNS
SK-OV-3 ovarian = system: SK-OV-3 ovarian
OVCAR-8 ovarian = system: OVCAR-8 ovarian
SF-268 CNS = system: SF-268 CNS
SK-MEL-28 melanoma = system: SK-MEL-28 melanoma

## O=[N+]([O-])c1ccc(Sc2ccncn2)c([N+](=O)[O-])c1
MOLT-4 leukemia
  GI50: 0.939 µM
  TGI: 4.24 µM
T-47D breast
  GI50: 1.94 µM
  TGI: 4.41 µM
NCI-H226 lung
  GI50: 7.22 µM
  TGI: 23.1 µM
OVCAR-5 ovarian
  GI50: 5.25 µM
  TGI: 17.7 µM
UO-31 renal
  GI50: 1.08 µM
  TGI: 2.84 µM
COLO 205 colon
  GI50: 2.55 µM
  TGI: 6.5 µM
UACC-257 melanoma
  GI50: 2.81 µM
  TGI: 9.37 µM
SK-MEL-2 melanoma
  GI50: 2.96 µM
  TGI: 8.96 µM
786-0 renal
  GI50: 2.24 µM
  TGI: 4.89 µM
HL-60(TB) leukemia
  GI50: 0.174 µM
  TGI: 0.677 µM
SF-539 CNS
  GI50: 2.32 µM
  TGI: 6.75 µM
UACC-62 melanoma
  GI50: 6.32 µM
  TGI: 19.3 µM
SNB-75 CNS
  GI50: 2.82 µM
  TGI: 13.1 µM
MDA-MB-435
  GI50: 2.5 µM
  TGI: 8.56 µM
A549 NSCLC
  GI50: 4.3 µM
  TGI: 16.4 µM
HOP-62 NSCLC
  GI50: 4.47 µM
  TGI: 15.8 µM
NCI-H522 lung
  GI50: 0.291 µM
  TGI: 0.987 µM
OVCAR-3 ovarian
  GI50: 1.46 µM
  TGI: 2.82 µM
NCI-H23 lung
  GI50: 2.93 µM
  TGI: 9.73 µM
HCT-15 colon
  GI50: 3.07 µM
  TGI: 9.93 µM
HS 578T breast
  GI50: 3.06 µM
  TGI: 24.2 µM
NCI-H460 lung
  GI50: 3.18 µM
  TGI: 10.8 µM
MCF7 breast
  GI50: 2.46 µM
  TGI: 7.74 µM
M14 melanoma
  GI50: 1.64 µM
  TGI: 3.3 µM
SW-620 colon
  GI50: 0.413 µM
  TGI: 1.53 µM
PC-3 prostate
  GI50: 3.98 µM
  TGI: 15.7 µM
HT29 colon
  GI50: 1.64 µM
  TGI: 3.81 µM
KM12 colon
  GI50: 2.75 µM
  TGI: 9 µM
EKVX NSCLC
  GI50: 2.39 µM
  TGI: 8.3 µM
DU-145 prostate
  GI50: 2.14 µM
  TGI: 9.17 µM
LOX IMVI melanoma
  GI50: 1.97 µM
  TGI: 5.21 µM
K-562 leukemia
  GI50: 0.277 µM
  TGI: 1.95 µM
MALME-3M melanoma
  GI50: 1.32 µM
  TGI: 3.23 µM
A498 renal
  GI50: 8.71 µM
  TGI: 22.7 µM
U251 CNS
  GI50: 5.47 µM
  TGI: 17.8 µM
SF-295 CNS
  GI50: 7.29 µM
  TGI: 20.3 µM
CAKI-1 renal
  GI50: 0.602 µM
  TGI: 1.93 µM
CCRF-CEM leukemia
  GI50: 0.504 µM
  TGI: 6.13 µM
TK-10 renal
  GI50: 3.03 µM
  TGI: 9.88 µM
IGROV1 ovarian
  GI50: 2.23 µM
  TGI: 5.3 µM
SK-MEL-5 melanoma
  GI50: 3.27 µM
  TGI: 11.7 µM
RXF 393 renal
  GI50: 3.99 µM
  TGI: 11.7 µM
SR leukemia
  GI50: 0.75 µM
  TGI: 3.53 µM
SN12C renal
  GI50: 3.89 µM
  TGI: 15.1 µM
OVCAR-4 ovarian
  GI50: 2.78 µM
  TGI: 11.3 µM
MDA-MB-231 breast
  GI50: 7.79 µM
  TGI: 20.8 µM
NCI/ADR-RES ovarian
  GI50: 4.46 µM
  TGI: 14.1 µM
HOP-92 NSCLC
  GI50: 1.17 µM
  TGI: 2.66 µM
BT-549 breast
  GI50: 2.7 µM
  TGI: 7.55 µM
ACHN renal
  GI50: 2.16 µM
  TGI: 5.82 µM
HCT-116 colon
  GI50: 0.726 µM
  TGI: 2 µM
RPMI-8226 leukemia
  GI50: 2.59 µM
  TGI: 8.16 µM
HCC-2998 colon
  GI50: 5.17 µM
  TGI: 16.3 µM
SNB-19 CNS
  GI50: 10.1 µM
  TGI: 23.7 µM
SK-OV-3 ovarian
  GI50: 8.64 µM
  TGI: 21.7 µM
OVCAR-8 ovarian
  GI50: 3.47 µM
  TGI: 13.3 µM
SF-268 CNS
  GI50: 2.75 µM
  TGI: 10.2 µM
SK-MEL-28 melanoma
  GI50: 4.31 µM
  TGI: 9.44 µM
